Measured values as given in patent US6875761B2 (Eisai Co., Ltd., priority 1997, dated 2005).
pKi: −log10 of the molar value. Counter-ions that a name gives are not always drawn.

Legend:
serotonin 1A receptor = biological target: T1, serotonin 1A receptor (Rattus norvegicus, UniProt P19327); test: Binding test on [3H] 8-hydroxy-dipropylaminotetralin, hippocampus receptor fraction; set-up: species or system SD rats; conditions: rat hippocampus receptor fraction, 0.5 nM [3H] 8-OH-DPAT, room temperature 30 min; read-out: 5HT1
T1 construct: To the receptor fraction of the hippocampus were added a test compound and 0.5 nM of [^3H]; 8-hydroxy-dipropylaminotetralin; from tissue; host or cells: rat hippocampus membrane fraction
T1 sequence (P19327 1-422): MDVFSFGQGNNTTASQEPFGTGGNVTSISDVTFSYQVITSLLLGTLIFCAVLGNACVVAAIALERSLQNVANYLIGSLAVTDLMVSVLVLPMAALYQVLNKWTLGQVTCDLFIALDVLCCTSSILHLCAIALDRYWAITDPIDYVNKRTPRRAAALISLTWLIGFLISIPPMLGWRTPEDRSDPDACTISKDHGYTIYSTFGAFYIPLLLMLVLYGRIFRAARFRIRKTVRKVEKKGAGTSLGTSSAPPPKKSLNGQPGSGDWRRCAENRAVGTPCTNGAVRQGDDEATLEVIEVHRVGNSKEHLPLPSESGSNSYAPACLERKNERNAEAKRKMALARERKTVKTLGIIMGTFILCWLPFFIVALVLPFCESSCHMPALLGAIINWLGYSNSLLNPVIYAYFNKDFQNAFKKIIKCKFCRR
Description: (1) Binding test on serotonin 1A, serotonin 2 and α1 adrenalin receptors
The following reagents were employed in this test. • 1) Serotonin binoxalate (5-HT binoxalate, mfd. by Sigma Chemical Co.). • 2) Methysergide maleate (mfd. by RBI).
As radioisotope-labeled compounds, use was made of the following reagents (mfd. by NEN). • 3) [^3H] 8-Hydroxy-dipropylaminotetralin (8-OH-DPAT). • 4) [^3H]
Methysergide maleate was dissolved in distilled water before using.
Use was made of SD rats aged 6 to 8 weeks.
The rats were sacrificed by dcapitation to extirpate the cerebra. The hippocampus and cortex were separated therefrom and employed in the binding tests respectively on the serotonin 1A receptor and the serotonin 2 receptor.
The hippocampus was mixed with 50 times (on the wet weight basis) as much as 0.32 M sucrose solution while the cortex was mixed with 10 times as much the same solution. Each mixture was homogenized by using a Teflon glass homogenizer and centrifuged as 1,000× g for 10 min. The supernatant thus obtained was further centrifuged at 20,000× g for 20 min. The obtained precipitate was re-suspended in 50 times (based on the initial wet weight; in the case of the hippocampus) or 10 times (in the case of the cortex) as much a 50 Tris hydrochloride (pH 7.4) and incubated at room temperature for 30 min. After centrifuging at 20,000× g for 20 min, the obtained precipitate was further suspended and centrifuged twice each in the same manner. The precipitate thus obtained was suspended in 100 times (based on the initial wet weight; in the case of the hippocampus) or 20 times (in the case of the cortex) as much a 50 mM Tris hydrochloride solution (pH 7.4) to thereby give a receptor fraction. This receptor fraction was stored at −80° C. until using.
To the receptor fraction of the hippocampus were added a test compound and 0.5 nM of [^3H] 8-hydroxy-dipropylaminotetralin and the resultant mixture was incubated at room temperature for 30 min. Next, it was filtered through a glass filter with the use of a cell harvester. After washing the glass filter with 50 mM Tris hydrochloride (pH 7.4), the radioactivity of the receptor was measured with a liquid scintillation counter. The binding detected in the presence of 10 μM of serotonin binoxalate was referred to as the nonspecific binding.
IC50 was calculated by the probit method, while Ki was determined in accordance with the following formula: Ki=IC50(1+c/Kd) wherein c represents the concentration of the radioisotope-labeled compound, and Kd represents the dissociation constant of the radioisotope-labeled compound with respect to the receptor determined by Scatchard's analysis.

serotonin 2 receptor = biological target: T2, serotonin 2 receptor (Rattus norvegicus, UniProt P14842); test: Binding test on [3H] ketanserin, cerebral cortex receptor fraction; set-up: species or system SD rats; conditions: 0.3 nM [3H] ketanserin, 37° C. 15 min, read-out: 5HT2
T2 construct: To the receptor fraction of the cerebral cortex were added a test compound and 0.3 nM of [^3H] ketanserin; from tissue; host or cells: rat cerebral cortex membrane fraction
T2 sequence (P14842 whole entry): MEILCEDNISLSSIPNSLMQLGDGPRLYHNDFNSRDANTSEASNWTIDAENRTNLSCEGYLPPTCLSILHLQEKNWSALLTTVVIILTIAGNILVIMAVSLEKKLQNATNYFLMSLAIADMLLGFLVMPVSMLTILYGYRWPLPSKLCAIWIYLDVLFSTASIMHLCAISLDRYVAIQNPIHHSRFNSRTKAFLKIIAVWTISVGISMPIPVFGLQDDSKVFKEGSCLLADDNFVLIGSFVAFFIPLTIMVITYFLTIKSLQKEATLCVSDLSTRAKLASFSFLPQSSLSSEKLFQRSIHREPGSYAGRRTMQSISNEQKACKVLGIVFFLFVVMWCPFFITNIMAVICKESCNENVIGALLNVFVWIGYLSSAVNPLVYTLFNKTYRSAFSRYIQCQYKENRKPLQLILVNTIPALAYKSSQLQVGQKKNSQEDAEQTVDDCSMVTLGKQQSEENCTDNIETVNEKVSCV

| Structure (SMILES) | pKi (serotonin 1A receptor) | pKi (serotonin 2 receptor) |
| --- | --- | --- |
| CCN1CCN(c2nc(-c3cccc(OCCO)c3)cc3ccoc23)CC1 [Example 298, 7-(1-ethylpiperazin-4-yl)-5-[3-(2-hydroxyethoxy)phenyl]furo[2,3-c]pyridine dihydrochloride] | 8.76 | 8.27 |
| CCN1CCN(c2nc(-c3ccc(CCCO)cc3)cc3ccoc23)CC1 [Example 299, 7-(1-ethylpiperazin-4-yl)-5-[4-(3-hydroxypropyl)phenyl]furo[2,3-c]pyridine dihydrochloride] | 9.43 | 7.52 |
| CCN1CCN(c2nc(-c3ccc(OCCO)cc3)cc3ccoc23)CC1 [Example 301, 7-(1-Ethylpiperazin-4-yl)-5-[4-(2-hydroxyethoxy)phenyl]furo[2,3-c]pyridine oxalate] | 8.04 | 7.90 |
| CCN1CCN(c2nc(-c3ccc(O[C@H](C)CO)cc3)cc3ccoc23)CC1 [Example 302, 7-(1-ethylpiperazin-4-yl)-5-{4-[(R)-2-hydroxy-1-methylethoxy]phenyl}furo[2,3-c]pyridine dihydrochloride] | 9.28 | 7.52 |
| CCN1CCN(c2nc(-c3ccc(O[C@@H](C)CO)cc3)cc3ccoc23)CC1 [Example 303, 7-(1-ethylpiperazin-4-yl)-5-{4-[(S)-2-hydroxy-1-methylethoxy]phenyl}furo[2,3-c]pyridine dihydrochloride] | 9.28 | 7.35 |
| CCN1CCN(c2nc(/C=C/c3ccc(OCCO)cc3)cc3ccoc23)CC1 [Example 307] | 8.11 | 7.94 |
| CCN1CCN(c2nc(/C=C/c3ccccc3OCCO)cc3ccoc23)CC1 [Example 308, oxalate] | 8.19 | 7.71 |
| CCN1CCN(c2nc(-c3ccc(OCC(C)(C)O)cc3)cc3ccccc23)CC1 [Example 309, 1-(1-ethylpiperazin-4-yl)-3-[4-(2-hydroxy-2-methylpropoxy)phenyl]isoquinoline dihydrochloride] | 7.04 | 11.00 |
| CCN1CCN(c2nc(C#CC(O)c3ccccc3)cc3ccccc23)CC1 (centres unmarked) [Example 310, 1-(1-ethylpiperazin-4-yl)-3-(3-phenyl-3-hydroxy-1-propynyl)isoquinoline hydrochloride] | 8.36 | 7.99 |
| CCN1CCN(c2nc(-c3ccc(OCCCO)cc3)cc3ccoc23)CC1 [Example 317, 7-(1-ethylpiperazin-4-yl)-5-[4-(3-hydroxypropoxy)phenyl]furo[2,3-c]pyridine dihydrochloride] | 7.91 | 6.98 |
| CCN1CCN(c2nc(-c3cccc(OCCO)c3)cc3ccccc23)CC1 [Example 329, 1-(4-Ethylpiperazin-1-yl)-3-[3-(2-hydroxyethoxy)phenyl]isoquinoline dihydrochloride] | 7.50 | 7.13 |
| CCN1CCN(c2nc(-c3ccc4c(c3)OCCO4)cc3ccccc23)CC1 [Example 332, 1-(4-ethylpiperazin-1-yl)-3-(3,4-ethylenedioxyphenyl)isoquinoline dihydrochloride] | 7.86 | 7.92 |
| CCN1CCN(c2nc(-c3ccc(CCCOC)cc3)cc3ccccc23)CC1 [Example 333, 1-(4-ethylpiperazin-1-yl)-3-[4-(3-(methoxypropyl)phenyl]isoquinolinedihydrochloride] | 7.77 | 8.21 |
| CCN1CCN(c2nc(-c3cc(OC)ccn3)cc3ccccc23)CC1 [Example 335, 1-(4-ethylpiperazin-1-yl)-3-(4-methoxypyridin-2-yl)isoquinoline dihydrochloride] | 7.22 | 7.69 |
| CCN1CCN(c2nc(-c3ccc(OCC4OCCO4)cc3)cc3ccccc23)CC1 [Example 336, 1-(4-ethylpiperazin-1-yl)-3-[4-(1,3-dioxolan-2-ylmethyloxy)phenyl]isoquinoline] | 7.34 | 8.59 |
| CCN1CCN(c2nc(-c3ccc(OCC(O)CO)cc3)cc3ccccc23)CC1 (centres unmarked) [Example 337, 1-(4-ethylpiperazin-1-yl)-3-[4-(2,3-dihydroxypropoxy)phenyl]isoquinoline dihydrochloride] | 7.59 | 8.25 |
| CCN1CCN(c2nc(-c3ccc(OCC(N)=O)cc3)cc3ccccc23)CC1 [Example 338, 1-(4-ethylpiperazin-1-yl)-3-(4-carbamoylmethoxyphenyl)isoquinoline dihydrochloride] | 7.85 | 7.21 |

| Structure (SMILES) | pKi (serotonin 1A receptor) | pKi (serotonin 2 receptor) |
| --- | --- | --- |
| CCN1CCN(c2nc(-c3ccc(OC(F)(F)F)cc3)cc3ccccc23)CC1 [Example 339, 1-(4-ethylpiperazin-1-yl)-3-(4-trifluoromethoxyphenyl)isoquinoline dihydrochloride] | 6.67 | 7.72 |
| CCN1CCN(c2nc(-c3ccc(OCCO)c(OC)c3)cc3ccccc23)CC1 [Example 340, 1-(4-ethylpiperazin-1-yl)-3-[4-(2-hydroxyethoxy)-3-methoxyphenyl]isoquinoline dihydrochloride] | 7.59 | 7.68 |
| CCN1CCN(c2nc(-c3ccc(S(C)(=O)=O)cc3)cc3ccccc23)CC1 [Example 342, 1-(4-ethylpiperazin-1-yl)-3-(4-methylsulfonylphenyl)isoquinoline dihydrochloride] | 8.21 | 7.83 |
| CCN1CCN(c2nc(-c3ccc(OCC(O)COC)cc3)cc3ccccc23)CC1 (centres unmarked) [Example 343, 1-(4-ethylpiperazin-1-yl)-3-[4-(2-hydroxy-3-methoxypropoxy)phenyl]isoquinoline dihydrochloride] | 7.45 | 8.24 |
| CCN1CCN(c2nc(-c3ccc(OC)nc3)cc3ccccc23)CC1 [Example 344, 1-(4-ethylpiperazin-1-yl)-3-(2-methoxypyridin-5-yl)isoquinoline] | 7.97 | 7.44 |
| CCN1CCN(c2nc(-c3ccc(C(C)(C)O)cc3)cc3ccccc23)CC1 [Example 345, 1-(4-ethylpiperazin-1-yl)-[4-(1-hydroxy-1-methylethyl)phenyl]isoquinoline] | 7.95 | 8.85 |
| CCN1CCN(c2nc(-c3ccc(C(=O)NCCO)cc3)cc3ccccc23)CC1 [Example 346, 1-(4-ethylpiperazin-1-yl)-3-{4-(N-(2-hydroxyethyl)carbamoyl]phenyl}isoquinoline dihydrochloride] | 7.50 | 7.38 |
| CCN1CCN(c2nc(-c3ccc(S(=O)(=O)NCCO)cc3)cc3ccccc23)CC1 [Example 347, 1-(4-ethylpiperazin-1-yl)-3-{4-[N-(2-hydroxyethyl)sulfamoyl]phenyl}isoquinoline dihydrochloride] | 8.10 | 7.62 |
| CCN1CCN(c2nc(-c3ccc(C(C)O)cc3)cc3ccccc23)CC1 (centres unmarked) [Example 348, 1-(4-ethylpiperazin-1-yl)-3-[4-(1-hydroxyethyl)phenyl]isoquinoline dihydrochloride] | 7.96 | 8.80 |
| CCCS(=O)(=O)c1ccc(-c2cc3ccccc3c(N3CCN(CC)CC3)n2)cc1 [Example 349, 1-(4-ethylpiperazin-1-yl)-3-[4-propylsulfonyl)phenyl]isoquinoline dihydrochloride] | 8.49 | 8.30 |
| CCN1CCN(c2nc(-c3ccc(S(=O)(=O)CCCOC)cc3)cc3ccccc23)CC1 [Example 350, 1-(4-ethylpiperazin-1-yl)-3-{4-[(3-methoxypropyl)sulfonyl]phenyl}isoquinoline] | 8.59 | 7.78 |
| CCN1CCN(c2nc(-c3ccc(CCO)cc3)cc3ccccc23)CC1 [Example 351, 1-(4-ethylpiperazin-1-yl)-3-[4-(2-hydroxyethyl)phenyl]isoquinoline dihydrochloride] | 7.80 | 8.19 |
| CCN1CCN(c2nc(-c3ccc(S(=O)(=O)CCCO)cc3)cc3ccccc23)CC1 [Example 352, 1-(4-ethylpiperazin-1-yl)-3-[4-(3-hydroxypropyl)sulfonylphenyl]isoquinoline dihydrochloride] | 8.40 | 7.26 |
| CCCNS(=O)(=O)c1ccc(-c2cc3ccccc3c(N3CCN(CC)CC3)n2)cc1 [Example 353, 1-(4-ethylpiperazin-1-yl)-3-[4-(N-propylsulfamoyl)phenyl]isoquinoline dihydrochloride] | 8.96 | 9.62 |
| CCN1CCN(c2nc(-c3ccc(S(=O)(=O)NCCOC)cc3)cc3ccccc23)CC1 [Example 354, 1-(4-ethylpiperazin-1-yl)-3-{4-[N-(2-methoxyethyl)sulfamoyl]phenyl}isoquinoline dihydrochloride] | 8.52 | 8.89 |
| CCN1CCN(c2nc(-c3ccc(S(=O)(=O)CCCF)cc3)cc3ccccc23)CC1 [Example 355, 1-(4-ethylpiperazin-1-yl)-3-[4-(3-fluoropropyl)sulfonylphenyl]isoquinoline dihydrochloride] | 8.59 | 8.31 |
| CCN1CCN(c2nc(-c3ccc(S(=O)(=O)N4CCCC4)cc3)cc3ccccc23)CC1 [Example 356, 1-(4-ethylpiperazin-1-yl)-3-[4-(pyrrolidin-1-yl)sulfonylphenyl]isoquinoline dihydrochloride] | 8.68 | 7.62 |
